Laboratory results taken from patent US20010046992A1, “Treatment of urinary tract infections with antibacterial oxazolidinones” (priority 2000, published 2001).

Assay: loss of linezolid in IV solution during and following terminal moist heat sterilization in the container
Assay type: physicochemical
Conditions: container-solution contact surface made of at least 50% polyolefin
Text: It is well known to those skilled in the art that pharmaceutical agents administered IV must be sterile. While there are a number of methods to sterilize an IV solution, it is preferred to terminally moist heat or steam sterilize IV solutions of antibacterial oxazolidinones including those of linezolid. When the term terminally “moist heat sterilize” is used, it refers to and includes steam sterilization.
When terminally moist heat sterilizing an IV solution, the solution is placed in the container in which (1) it will be stored and then transferred to the container from which it will ultimately be administered, or (2) stored and then ultimately administered from the same container to deliver the IV solution to the patient. Therefore, it is imperative that the pharmaceutically active ingredient (oxazolidinone, linezolid) not react with the container in which it is to be terminally moist heat sterilized and stored/stored-administered.
What is essential is that the container-solution contact surface material be primarily a polyolefin; the remainder of the container can be made from polyolefin or other materials. It is preferred that the container-solution contact surface is made of from about 50 to about 100% polyolefin. It is more preferred that the container-solution contact surface is made of from about 70 to about 90% polyolefin. […]

CC(=O)NC[C@H]1CN(c2ccc(N3CCOCC3)c(F)c2)C(=O)O1 [linezolid, (S)-N-[[3-[3-fluoro-4-(4-morpholinyl)phenyl]-2-oxo-5-oxazolidinyl]methyl]acetamide]
loss of linezolid during and following terminal moist heat sterilization: significantly much less loss
